Reference: BindingDB's records for doi:10.1016/j.bmcl.2009.07.052 (Incyte, 2009)

What follows are compounds tested against Receptor tyrosine-protein kinase erbB-2 (Homo sapiens, UniProt P04626) (assay: Inhibition of HER-2).
Chain of Receptor tyrosine-protein kinase erbB-2 (P04626 whole entry): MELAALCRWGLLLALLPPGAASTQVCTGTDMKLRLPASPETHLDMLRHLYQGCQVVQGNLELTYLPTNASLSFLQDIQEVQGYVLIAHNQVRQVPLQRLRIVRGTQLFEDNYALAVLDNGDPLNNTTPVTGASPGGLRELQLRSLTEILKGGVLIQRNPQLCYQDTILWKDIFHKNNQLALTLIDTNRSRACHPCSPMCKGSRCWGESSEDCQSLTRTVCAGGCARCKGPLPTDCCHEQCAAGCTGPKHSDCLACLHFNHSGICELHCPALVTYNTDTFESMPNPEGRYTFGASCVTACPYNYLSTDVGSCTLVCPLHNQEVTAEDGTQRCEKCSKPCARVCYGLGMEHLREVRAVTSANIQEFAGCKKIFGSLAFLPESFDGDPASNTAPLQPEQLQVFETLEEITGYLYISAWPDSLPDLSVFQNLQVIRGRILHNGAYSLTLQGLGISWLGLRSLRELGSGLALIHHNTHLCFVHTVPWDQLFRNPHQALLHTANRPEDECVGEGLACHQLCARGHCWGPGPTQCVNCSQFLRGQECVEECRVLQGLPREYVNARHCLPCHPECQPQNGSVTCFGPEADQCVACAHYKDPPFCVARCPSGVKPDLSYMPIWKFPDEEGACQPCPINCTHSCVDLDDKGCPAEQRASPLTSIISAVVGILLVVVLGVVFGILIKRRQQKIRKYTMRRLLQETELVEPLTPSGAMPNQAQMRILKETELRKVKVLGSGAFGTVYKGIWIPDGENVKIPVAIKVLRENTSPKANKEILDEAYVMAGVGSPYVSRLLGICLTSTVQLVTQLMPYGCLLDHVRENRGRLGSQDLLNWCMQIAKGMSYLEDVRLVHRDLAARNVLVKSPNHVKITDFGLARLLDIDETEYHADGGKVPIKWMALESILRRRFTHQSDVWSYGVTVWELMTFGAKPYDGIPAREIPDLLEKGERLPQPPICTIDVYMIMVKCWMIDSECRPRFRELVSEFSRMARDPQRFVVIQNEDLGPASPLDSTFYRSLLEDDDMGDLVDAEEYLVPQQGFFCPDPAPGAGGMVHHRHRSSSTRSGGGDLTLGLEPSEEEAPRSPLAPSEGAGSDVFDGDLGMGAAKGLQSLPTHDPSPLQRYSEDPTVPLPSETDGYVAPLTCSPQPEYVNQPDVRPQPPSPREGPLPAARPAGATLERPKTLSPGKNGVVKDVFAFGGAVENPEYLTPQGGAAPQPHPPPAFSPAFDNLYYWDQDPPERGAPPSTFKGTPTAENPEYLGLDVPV

Point of comparison: `CN(C(=O)c1ccccc1)C1CN[C@H](C(=O)N2CC[C@H](c3ccccc3)C2)[C@@H](C(=O)NO)C1` (stereo partly drawn) [(2S,3S)-N-hydroxy-5-(N-methylbenzamido)-2-((R)-3-phenylpyrrolidine-1-carbonyl)piperidine-3-carboxamide], IC50 29 nM. Against it:
- O=C(NO)[C@H]1CC(OC(=O)N2CCCC2)CN[C@@H]1C(=O)N1CC[C@H](c2ccccc2)C1 (stereo partly drawn) — within 1.5-fold, 28 nM
- O=C(NO)[C@H]1CC(CC(=O)N2CCCC2)CN[C@@H]1C(=O)N1CC=C(c2ccccc2)CC1 (stereo partly drawn) [(2S,3S)-N-hydroxy-5-(2-oxo-2-(pyrrolidin-1-yl)ethyl)-2-(4-phenyl-1,2,3,6-tetrahydropyridine-1-carbonyl)piperidine-3-carboxamide] — 6.7-fold lower, 4.3 nM
- O=C(NO)[C@H]1CC(CC(=O)N2CCCC2)CN[C@@H]1C(=O)N1CC[C@H](c2ccccc2)C1 (stereo partly drawn) [(2S,3S)-N-hydroxy-5-(2-oxo-2-(pyrrolidin-1-yl)ethyl)-2-((R)-3-phenylpyrrolidine-1-carbonyl)piperidine-3-carboxamide] — 5.2-fold lower, 5.6 nM
- CN(C(=O)c1ccccc1)C1CN[C@H](C(=O)N2CC=C(c3ccccc3)CC2)[C@@H](C(=O)NO)C1 (stereo partly drawn) [(2S,3S)-N-hydroxy-5-(N-methylbenzamido)-2-(4-phenyl-1,2,3,6-tetrahydropyridine-1-carbonyl)piperidine-3-carboxamide] — 2.9-fold lower, 10 nM
- CC(C)C(=O)N(C)C1CN[C@H](C(=O)N2CC=C(c3ccccc3)CC2)[C@@H](C(=O)NO)C1 (stereo partly drawn) [(2S,3S)-N-hydroxy-5-(N-methylisobutyramido)-2-(4-phenyl-1,2,3,6-tetrahydropyridine-1-carbonyl)piperidine-3-carboxamide] — 1.9-fold lower, 15.5 nM
- CC(C)C(=O)N(C)C1CN[C@H](C(=O)N2CC[C@H](c3ccccc3)C2)[C@@H](C(=O)NO)C1 (stereo partly drawn) [(2S,3S)-N-hydroxy-5-(N-methylisobutyramido)-2-((R)-3-phenylpyrrolidine-1-carbonyl)piperidine-3-carboxamide] — 1.8-fold higher, 52 nM
- COC(=O)N1C[C@@H](OC(=O)N2CCCC2)C[C@H](C(=O)NO)[C@H]1C(=O)N1CCN(c2ccccc2)CC1 [(2S,3S,5S)-methyl 3-(hydroxycarbamoyl)-2-(4-phenylpiperazine-1-carbonyl)-5-(pyrrolidine-1-carbonyloxy)piperidine-1-carboxylate] — 3.6-fold lower, 8.1 nM
- O=C(NO)[C@H]1C[C@@H](OC(=O)N2CCCC2)CN[C@@H]1C(=O)N1CC=C(c2ccccc2)CC1 [(3R,5S,6S)-5-(hydroxycarbamoyl)-6-(4-phenyl-1,2,3,6-tetrahydropyridine-1-carbonyl)piperidin-3-yl pyrrolidine-1-carboxylate] — within 1.5-fold, 30 nM
- CN1C[C@@H](OC(=O)N2CC=CC2)C[C@H](C(=O)NO)[C@H]1C(=O)N1CCN(c2ccccc2)CC1 [(3S,5S,6S)-5-(hydroxycarbamoyl)-1-methyl-6-(4-phenylpiperazine-1-carbonyl)piperidin-3-yl 2,5-dihydro-1H-pyrrole-1-carboxylate] — 7.6-fold lower, 3.8 nM
- CN1C[C@@H](OC(=O)N2CCC(F)(F)C2)C[C@H](C(=O)NO)[C@H]1C(=O)N1CCN(c2ccccc2)CC1 [(3S,5S,6S)-5-(hydroxycarbamoyl)-1-methyl-6-(4-phenylpiperazine-1-carbonyl)piperidin-3-yl 3,3-difluoropyrrolidine-1-carboxylate] — 1.7-fold higher, 50.5 nM
- CN1C[C@@H](OC(=O)N2CCCCCC2)C[C@H](C(=O)NO)[C@H]1C(=O)N1CCN(c2ccccc2)CC1 [(3S,5S,6S)-5-(hydroxycarbamoyl)-1-methyl-6-(4-phenylpiperazine-1-carbonyl)piperidin-3-yl azepane-1-carboxylate] — 6.6-fold lower, 4.4 nM
- CN1C[C@@H](OC(=O)N2CCC2)C[C@H](C(=O)NO)[C@H]1C(=O)N1CCN(c2ccccc2)CC1 [(3S,5S,6S)-5-(hydroxycarbamoyl)-1-methyl-6-(4-phenylpiperazine-1-carbonyl)piperidin-3-yl azetidine-1-carboxylate] — 1.5-fold higher, 44.5 nM
- CN1C[C@@H](OC(=O)N2CCCCCCC2)C[C@H](C(=O)NO)[C@H]1C(=O)N1CCN(c2ccccc2)CC1 [(3S,5S,6S)-5-(hydroxycarbamoyl)-1-methyl-6-(4-phenylpiperazine-1-carbonyl)piperidin-3-yl azocane-1-carboxylate] — within 1.5-fold, 27.5 nM
- CN(C)C(=O)O[C@H]1C[C@H](C(=O)NO)[C@@H](C(=O)N2CCN(c3ccccc3)CC2)N(C)C1 [(3S,5S,6S)-5-(hydroxycarbamoyl)-1-methyl-6-(4-phenylpiperazine-1-carbonyl)piperidin-3-yl dimethylcarbamate] — within 1.5-fold, 31 nM
- CN1C[C@@H](OC(=O)N2CCCCC2)C[C@H](C(=O)NO)[C@H]1C(=O)N1CCN(c2ccccc2)CC1 [(3S,5S,6S)-5-(hydroxycarbamoyl)-1-methyl-6-(4-phenylpiperazine-1-carbonyl)piperidin-3-yl piperidine-1-carboxylate] — 4-fold lower, 7.3 nM
- CN1C[C@@H](OC(=O)N2CCCC2)C[C@H](C(=O)NO)[C@H]1C(=O)N1CCN(c2ccccc2)CC1 [(3S,5S,6S)-5-(hydroxycarbamoyl)-1-methyl-6-(4-phenylpiperazine-1-carbonyl)piperidin-3-yl pyrrolidine-1-carboxylate] — 2.5-fold lower, 11.5 nM
- O=C(NO)[C@H]1C[C@H](OC(=O)N2CCCC2)CN[C@@H]1C(=O)N1CC=C(c2ccccc2)C1 [(5S,6S)-5-(hydroxycarbamoyl)-6-(3-phenyl-2,5-dihydro-1H-pyrrole-1-carbonyl)piperidin-3-yl pyrrolidine-1-carboxylate] — 2.6-fold lower, 11 nM
- O=C(NO)[C@H]1CC(OC(=O)N2CCCC2)CN[C@@H]1C(=O)N1CC=C(c2ccccc2)CC1 (stereo partly drawn) [(5S,6S)-5-(hydroxycarbamoyl)-6-(4-phenyl-1,2,3,6-tetrahydropyridine-1-carbonyl)piperidin-3-yl pyrrolidine-1-carboxylate] — 5.2-fold lower, 5.6 nM
- O=C(NO)[C@H]1C[C@H](OC(=O)N2CCCC2)CN[C@@H]1C(=O)N1CCN(c2ccccc2)CC1 [(5S,6S)-5-(hydroxycarbamoyl)-6-(4-phenylpiperazine-1-carbonyl)piperidin-3-yl pyrrolidine-1-carboxylate] — 7.6-fold lower, 3.8 nM
- O=C(NO)[C@H]1C[C@H](OC(=O)N2CCCC2)CN[C@@H]1C(=O)N1CCC(c2ccccc2)CC1 [(5S,6S)-5-(hydroxycarbamoyl)-6-(4-phenylpiperidine-1-carbonyl)piperidin-3-yl pyrrolidine-1-carboxylate] — within 1.5-fold, 42 nM
- O=C(NO)[C@H]1CC(OC(=O)N2CCCC2)CN[C@@H]1C(=O)N1Cc2ccccc2C1 (stereo partly drawn) [(5S,6S)-5-(hydroxycarbamoyl)-6-(isoindoline-2-carbonyl)piperidin-3-yl pyrrolidine-1-carboxylate] — 2.4-fold higher, 70 nM
- CC(C)OC(=O)N(C)C1CN[C@H](C(=O)N2CC=C(c3ccccc3)CC2)[C@@H](C(=O)NO)C1 (stereo partly drawn) [isopropyl-(5S,6S)-5-(hydroxycarbamoyl)-6-(4-phenyl-1,2,3,6-tetrahydropyridine-1-carbonyl)piperidin-3-yl(methyl)carbamate] — 3.4-fold lower, 8.5 nM
